# Data as given in patent publication US20250304559A1, “Ether-Linked Antiviral Compounds” (Pfizer Inc., priority 2021, published 2025).
# Where two headings read alike, the source gives them in different places.
# Columns and labels:
# SARS-CoV-2 3CL protease = target: T1, SARS-CoV-2 3CL protease (Severe acute respiratory syndrome coronavirus 2, UniProt P0DTD1); assay: SARS-CoV-2 Coronavirus 3C Protease FRET Assay; format: biochemical; conditions: Morrison equation fit, 15 nM enzyme, 25 μM peptide substrate
# T1 construct: measures the activity of full-length SARS-CoV-2 3CL protease
# [1] = test system: SARS-CoV-2 (USA_WA1/2020); assay: Antiviral Activity from SARS-CoV-2 Infection (cytopathic effect, Cell Titer-Glo); format: cell-based; conditions: tested alone or with P-gp inhibitor CP-100356 2 μM (table does not say which)
# [2] = Examples 14-78 and 114 (second head of Table 2), read-out: Geometric Mean Ki (nM) IC50
# [3] = Severe acute respiratory syndrome coronavirus 2, Vero C1008, 72 h, VeroE6 cells enriched for hACE2, MOI 0.002, 3-day incubation, read-out: Geometric Mean EC50
# [4] = Examples 1-13, 60 minutes at 23° C., read-out: Geometric Mean Ki
Structure (SMILES),Ki (SARS-CoV-2 3CL protease; [2]) [nM],"EC50 [1, 3] [nM]",Ki (SARS-CoV-2 3CL protease; [4]) [nM],"EC50 ([1]; VeroE6 cells enriched for hACE2, MOI 0.002, 3-day incubation, read-out: Geometric Mean EC50) [nM]","EC50 ([1]; Severe acute respiratory syndrome coronavirus 2, Vero C1008, 72 h, read-out: Geometric Mean EC50 (nM), VeroE6 cells enriched for hACE2, MOI 0.002, 3-day incubation) [nM]"
"CC(C)c1cccc(OCC(=O)[C@H](C[C@@H]2CCNC2=O)NC(=O)[C@@H]2[C@@H]3[C@H](CN2C(=O)[C@@H](NC(=O)C(F)(F)F)C(C)C)C3(C)C)c1 [Example 56, (1R,2S,5S)-6,6-dimethyl-N-{(2S)-3-oxo-1-[(3S)-2-oxopyrrolidin-3-yl]-4-[3-(propan-2-yl)phenoxy]butan-2-yl}-3-[N-(trifluoroacetyl)-L-valyl]-3-azabicyclo[3.1.0]hexane-2-carboxamide]",14.4,119,,,
"CC(C)(C)[C@H](NS(=O)(=O)C(F)(F)F)C(=O)N1C[C@H]2[C@@H]([C@H]1C(=O)N[C@@H](C[C@@H]1CC(O)NC1=O)C(=O)COc1ccc(F)cc1F)C2(C)C (stereo partly drawn) [Example 38, (1R,2S,5S)-N-{(2S)-4-(2,4-difluorophenoxy)-1-[(3R)-5-hydroxy-2-oxopyrrolidin-3-yl]-3-oxobutan-2-yl}-6,6-dimethyl-3-[3-methyl-N-(trifluoromethanesulfonyl)-L-valyl]-3-azabicyclo[3.1.0]hexane-2-carboxamide]",4.12,1390,,,
"Cn1nc(C(F)(F)F)cc1OCC(=O)[C@H](C[C@@H]1CCNC1=O)NC(=O)[C@@H]1[C@@H]2[C@H](CN1C(=O)[C@@H](NS(C)(=O)=O)C(C)(C)C)C2(C)C [Example 7, (1R,2S,5S)-6,6-dimethyl-3-[3-methyl-N-(methylsulfonyl)-L-valyl]-N-{(2S)-4-{[1-methyl-3-(trifluoromethyl)-1H-pyrazol-5-yl]oxy}-3-oxo-1-[(3S)-2-oxopyrrolidin-3-yl]butan-2-yl}-3-azabicyclo[3.1.0]hexane-2-carboxamide]",,1260,2.88,,
"CC[C@@H]([C@H](NS(=O)(=O)C(F)(F)F)C(=O)N1C[C@H]2[C@@H]([C@H]1C(=O)N[C@@H](C[C@@H]1CCNC1=O)C(=O)COc1ccc(F)cc1F)C2(C)C)C(F)(F)F [Example 70, (1R,2S,5S)-N-{(2S)-4-(2,4-difluorophenoxy)-3-oxo-1-[(3S)-2-oxopyrrolidin-3-yl]butan-2-yl}-6,6-dimethyl-3-[3′,3′,3′-trifluoro-N-(trifluoromethanesulfonyl)-L-isoleucyl]-3-azabicyclo[3.1.0]hexane-2-carboxamide]",203,5440,,,
"CC(C)[C@H](NC(=O)C(F)(F)F)C(=O)N1C[C@H]2[C@@H]([C@H]1C(=O)N[C@@H](C[C@@H]1CCNC1=O)C(=O)COc1nnc(C(F)(F)F)n1C)C2(C)C [Example 74, (1R,2S,5S)-6,6-dimethyl-N-{(2S)-4-{[4-methyl-5-(trifluoromethyl)-4H-1,2,4-triazol-3-yl]oxy}-3-oxo-1-[(3S)-2-oxopyrrolidin-3-yl]butan-2-yl}-3-[N-(trifluoroacetyl)-L-valyl]-3-azabicyclo[3.1.0]hexane-2-carboxamide]",919,25700,,,
"CCC([C@H](NC(=O)C(F)(F)F)C(=O)N1C[C@H]2[C@@H]([C@H]1C(=O)N[C@@H](C[C@@H]1CCNC1=O)C(=O)COc1ccc(F)cc1F)C2(C)C)C(F)(F)F (stereo in doubt) [Example 57, (1R,2S,5S)-N-{(2S)-4-(2,4-difluorophenoxy)-3-oxo-1-[(3S)-2-oxopyrrolidin-3-yl]butan-2-yl}-6,6-dimethyl-3-[3′,3′,3′-trifluoro-N-(trifluoroacetyl)-L-isoleucyl]-3-azabicyclo[3.1.0]hexane-2-carboxamide]",17.3,275,,,
"CC(C)[C@H](NC(=O)C(F)(F)F)C(=O)N1C[C@H]2[C@@H]([C@H]1C(=O)N[C@@H](C[C@@H]1CCNC1=O)C(=O)COc1ncnn1-c1ccccc1)C2(C)C [Example 64, (1R,2S,5S)-6,6-dimethyl-N-{(2S)-3-oxo-1-[(3S)-2-oxopyrrolidin-3-yl]-4-[(1-phenyl-1H-1,2,4-triazol-5-yl)oxy]butan-2-yl}-3-[N-(trifluoroacetyl)-L-valyl]-3-azabicyclo[3.1.0]hexane-2-carboxamide]",62.2,5360,,,
"CC(C)[C@H](NS(=O)(=O)C(F)(F)F)C(=O)N1C[C@H]2[C@@H]([C@H]1C(=O)N[C@@H](C[C@@H]1CCNC1=O)C(=O)COc1ccc(F)cc1F)C2(C)C [Example 4, (1R,2S,5S)-N-{(2S)-4-(2,4-difluorophenoxy)-3-oxo-1-[(3S)-2-oxopyrrolidin-3-yl]butan-2-yl}-6,6-dimethyl-3-{N-[(trifluoromethyl)sulfonyl]-L-valyl}-3-azabicyclo[3.1.0]hexane-2-carboxamide]",,395,6.34,,
"CC(C)[C@H](NS(C)(=O)=O)C(=O)N1CCC2(CC2)C[C@H]1C(=O)N[C@@H](C[C@@H]1CCNC1=O)C(=O)COc1ccc(F)cc1F (single isomer, unassigned) [Example 66, (5R*)-N-{(2S)-4-(2,4-difluorophenoxy)-3-oxo-1-[(3S)-2-oxopyrrolidin-3-yl]butan-2-yl}-6-[N-(methanesulfonyl)-L-valyl]-6-azaspiro[2.5]octane-5-carboxamide, DIAST-2]",15.7,,,669,
"CC(C)[C@H](NC(=O)C(F)(F)F)C(=O)N1C[C@H]2[C@@H]([C@H]1C(=O)N[C@H](C[C@@H]1CCNC1=O)C(=O)COc1ccc(F)cc1F)C2(C)C [Example 2, (1R,2S,5S)-N-{(2R)-4-(2,4-difluorophenoxy)-3-oxo-1-[(3S)-2-oxopyrrolidin-3-yl]butan-2-yl}-6,6-dimethyl-3-[N-(trifluoroacetyl)-L-valyl]-3-azabicyclo[3.1.0]hexane-2-carboxamide]",,74.4,172,,
"CC(C)(C)[C@H](NS(=O)(=O)C(F)(F)F)C(=O)N1C[C@H]2[C@@H]([C@H]1C(=O)N[C@@H](C[C@@H]1CCNC1=O)C(=O)COc1ccc(F)cc1)C2(C)C [Example 29, (1R,2S,5S)-N-{(2S)-4-(4-fluorophenoxy)-3-oxo-1-[(3S)-2-oxopyrrolidin-3-yl]butan-2-yl}-6,6-dimethyl-3-[3-methyl-N-(trifluoromethanesulfonyl)-L-valyl]-3-azabicyclo[3.1.0]hexane-2-carboxamide]",4.69,,,,57
"CC(C)[C@H](NC(=O)C(F)(F)F)C(=O)N1C[C@H]2[C@@H]([C@H]1C(=O)N[C@@H](C[C@@H]1CCNC1=O)C(=O)COc1ccccc1F)C2(C)C [Example 47, (1R,2S,5S)-N-{(2S)-4-(2-fluorophenoxy)-3-oxo-1-[(3S)-2-oxopyrrolidin-3-yl]butan-2-yl}-6,6-dimethyl-3-[N-(trifluoroacetyl)-L-valyl]-3-azabicyclo[3.1.0]hexane-2-carboxamide]",8.58,59.7,,,
"CC(C)[C@H](NC(=O)C(F)(F)F)C(=O)N1CC[C@@H](C)C[C@H]1C(=O)N[C@@H](C[C@@H]1CCNC1=O)C(=O)COc1ccc(F)cc1F (relative stereo) [Example 69, (2R*,4S*)-N-{(2S)-4-(2,4-difluorophenoxy)-3-oxo-1-[(3S)-2-oxopyrrolidin-3-yl]butan-2-yl}-4-methyl-1-[N-(trifluoroacetyl)-L-valyl]piperidine-2-carboxamide]",219,562,,,
"CC(C)[C@H](NC(=O)C(F)(F)F)C(=O)N1C[C@H]2[C@@H]([C@H]1C(=O)N[C@@H](C[C@@H]1CCNC1=O)C(=O)COc1nnc3c(F)cccn13)C2(C)C [Example 75, (1R,2S,5S)-N-{(2S)-4-[(8-fluoro[1,2,4]triazolo[4,3-a]pyridin-3-yl)oxy]-3-oxo-1-[(3S)-2-oxopyrrolidin-3-yl]butan-2-yl}-6,6-dimethyl-3-[N-(trifluoroacetyl)-L-valyl]-3-azabicyclo[3.1.0]hexane-2-carboxamide]",2900,> 76800,,,
